Assay results from US20090143456A1, “Polyamine Analogs as Modulators of Cell Migration and Cell Motility” (priority 2005, published 2009).

Test system: Human glioblastoma SNB19 cells
Test: LIVE/DEAD reagent staining to assess compound toxicity at end of migration assay
Assay type: cell-based
Method: The 96 well slides were first coated with 0.1 μg/ml laminin, a motility stimulating substrate, in PBS for 1 hour at 37° C., rinsed three times in PBS, and then treated with 0.1% BSA in PBS for 1 hour at room temperature. Human glioblastoma SNB19 cells were plated at 3,000 cells per sedimentation channel and incubated overnight to allow cell sedimentation and attachment to the substrate. After removal of the manifold, the cells were treated with the compounds either at 0, 0.1 μM, 1 μM or […]. The experiment was done in duplicate with appropriate controls on each slide. After adding the compounds, the diameter of each cell population was initially measured using an inverted microscope and image analysis software (Scion Image Corp, Frederick, Md.). Cells were incubated an additional 72 hours in the presence (or not) of the pharmacological compounds. The diameter of each cell population was again assessed at 24 hours, 48 hours and 72 hours to calculate the overall migration rate. Migration results were reported as the specific radial movement (μm/day) of the cell population. […] At the end of the assay, cells were rinsed with PBS, then treated with LIVE/DEAD reagent staining (Molecular Probes, Eugene, Oreg.) to assess compound toxicity.
FIGS. 1-38 show data for the activity of compounds in the migration assay. […]

c1ccc(C2(NCCCCNCC3CC3CNCCCCNC3(c4ccccc4)CC3)CC2)cc1 (centres unmarked) [SL-11255, 1,2-bis((1-phenylcyclopropylaminobutyl)aminomethyl)cyclopropane]
cytotoxic effects (Live/Dead assay) (10 μM, at time of staining (end of 72 hour assay)): severe cytotoxic effects
toxicity (Live/Dead assay) (lower concentrations (below 10 μM)): not toxic
